According to patent US20020004042A1, “Gene therapy for pulmonary edema using adenovirus vectors encoding a beta2adrenergic receptor gene” (priority 2000, published 2002):

Legend:
rat lungs = assay: Lung liquid clearance, fluid-filled isolated perfused rat lung preparation; assay type: in vivo, Sprague-Dawley rats; details: procaterol 100 μg every 8 hours by gavage
Method: To test if β2AR gene transfer could increase transgene expression and if overexpression could affect the transepithelial osmotic gradient necessary to achieve pulmonary edema clearance, normal Sprague-Dawley rats were infected with the vectors disclosed in Example 1. 250-300 gm male Sprague-Dawley rats were lightly sedated with pentobarbital prior to orotracheal intubation with a 14 g angiocatheter. Adenovirus (4×10^9 pfu) was suspended in […] of a 50% surfactant/50% dialysis buffer mixture (Surfanta, Abbott Laboratories, Columbus, Ohio). […]
Seven days after infection, whole lung transgene expression was measured via Western analysis using a rabbit anti-human β2AR antibody and chemiluminescent detection method. […] To test for in vivo transgene function lung liquid clearance was measured using a well-established isolated lung preparation. […]
To test if agonist-induced loss of receptor function and/or expression occurs in the alveolar epithelium normal rats were treated with the β2AR specific agonist procaterol (100 μg every 8 hours by gavage). Lung liquid clearance was then measured using a fluid-filled isolated lung preparation in the presence of procaterol (10^−6 M instilled into the alveolar airspace and perfused through the pulmonary artery) beginning 4 hours after the first dose. […]

β2AR = biological target: T1, β2AR (Rattus norvegicus, UniProt P10608); assay: Western analysis of β2AR in apical membranes of peripheral lung of procaterol-treated rats; assay type: in vivo; details: procaterol 100 μg every 8 hours by gavage
T1 construct: from tissue; host or cells: apical membranes of rat peripheral lung
Method: To test if agonist-induced loss of receptor function and/or expression occurs in the alveolar epithelium normal rats were treated with the β2AR specific agonist procaterol (100 μg every 8 hours by gavage). Lung liquid clearance was then measured using a fluid-filled isolated lung preparation in the presence of procaterol (10^−6 M instilled into the alveolar airspace and perfused through the pulmonary artery) beginning 4 hours after the first dose. […] Thus, the loss of catecholamine responsive lung liquid clearance in these rats is likely due, in part, to receptor downregulation.

Na,K-ATPase = assay: Western analysis of Na,K-ATPase α1 and β1 in basolateral membrane of A549 cells; assay type: cell-based, human; details: ICI 118,551 10^-6 M 10 minutes prior to procaterol
Method: To test if β2AR overexpression can affect active Na^+ transport in vitro, A549 cells were treated as described above prior to measurement of ouabain-sensitive Na^+ transport (an index of Na,K-ATPase activity). […] Additional studies done to establish the mechanisms responsible for this finding included quantification of Na,K-ATPase α1 and β1 expression in the basolateral membrane of A549 cells.

T1 sequence (P10608 whole entry): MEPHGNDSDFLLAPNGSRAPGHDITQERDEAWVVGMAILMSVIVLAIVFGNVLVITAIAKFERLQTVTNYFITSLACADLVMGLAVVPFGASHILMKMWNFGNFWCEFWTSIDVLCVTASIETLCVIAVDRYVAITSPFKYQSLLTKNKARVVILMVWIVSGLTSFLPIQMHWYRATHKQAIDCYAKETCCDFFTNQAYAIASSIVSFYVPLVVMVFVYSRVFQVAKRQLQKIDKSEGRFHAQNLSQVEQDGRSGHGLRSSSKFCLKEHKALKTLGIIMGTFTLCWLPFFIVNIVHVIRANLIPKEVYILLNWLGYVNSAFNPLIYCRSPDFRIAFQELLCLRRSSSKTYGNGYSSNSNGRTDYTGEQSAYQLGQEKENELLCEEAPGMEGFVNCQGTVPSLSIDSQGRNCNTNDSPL

Structure (SMILES) | lung liquid clearance in presence of procaterol after procaterol pretreatment, 4 hours (rat lungs; 4 hours after first dose, 10^-6 M during measurement) | lung liquid clearance in presence of procaterol after procaterol pretreatment, 24 hours (rat lungs; 24 hours) | β2AR expression in apical membranes of peripheral lung (β2AR) | effect of antagonist pre-treatment on recruitment of Na,K-ATPase to the cell membrane (Na,K-ATPase)
CCC(NC(C)C)C(O)c1ccc(O)c2[nH]c(=O)ccc12 (stereo not shown) [procaterol] | not different from untreated controls | remained less than naive rats | marked reductions | –
Cc1ccc(OCC(O)C(C)NC(C)C)c2c1CCC2 (stereo not shown) [ICI 118,551] | – | – | – | blocked
